In ChEMBL document CHEMBL4033749, “Synthesis and biological evaluation of 5-fatty-acylamido-1, 3, 4-thiadiazole-2-thioglycosides” (Bioorg Med Chem Lett, 2017):
In brackets after ≈: the same amount, converted by molar mass. Activity calls are given as the source filed them. The calls are words filed in the database; no cut-off is given here.

Tests used:
[1] = test system: Staphylococcus epidermidis; test: Antibacterial activity Staphylococcus epidermidis MTCC 9041 by agar well method; assay type: functional
Staphylococcus aureus = test: Antibacterial activity Staphylococcus aureus MTCC 96 by agar well method; assay type: functional
Escherichia coli = test: Antibacterial activity Escherichia coli MTCC 443 by agar well method; assay type: functional
Bacillus subtilis = test: Antibacterial activity Bacillus subtilis MTCC 441 by agar well method; assay type: functional
Klebsiella pneumoniae = test: Antibacterial activity Klebsiella pneumoniae MTCC 618 by agar well method; assay type: functional
Pseudomonas aeruginosa = test: Antibacterial activity Pseudomonas aeruginosa MTCC 1688 by agar well method; assay type: functional
DU-145 = test: Cytotoxicity against human DU145 cells incubated for 24 hrs by MTT asasy; assay type: functional, cell-based
SK-OV-3 = test: Cytotoxicity against human SKOV3 cells incubated for 24 hrs by MTT asasy; assay type: functional, cell-based
HeLa = test: Cytotoxicity against human HeLa cells incubated for 24 hrs by MTT asasy; assay type: functional, cell-based
CHO-K1 = test: Cytotoxicity against CHOK1 cells incubated for 24 hrs by MTT asasy; assay type: cell-based, Cricetulus griseus
MDA-MB-231 = test: Cytotoxicity against human MDA-MB-231 cells incubated for 24 hrs by MTT asasy; assay type: functional, cell-based
[2] = Homo sapiens, HeLa, 24 h, read-out: IC50
[3] = Homo sapiens, MDA-MB-231, 24 h, read-out: IC50
[4] = Homo sapiens, DU-145, 24 h, read-out: IC50
[5] = Cricetulus griseus, CHO-K1, 24 h, read-out: IC50

Compound | MIC [1] | MIC (Staphylococcus aureus) | MIC (Escherichia coli) | MIC (Bacillus subtilis) | MIC (Klebsiella pneumoniae) | MIC (Pseudomonas aeruginosa) | IC50 (DU-145; du-145) | IC50 (SK-OV-3; sk-ov-3) | IC50 (HeLa; [2]) | IC50 (CHO-K1; cho-k1) | IC50 (MDA-MB-231; [3]) | IC50 (DU-145; [4]) | IC50 (CHO-K1; [5]) | IC50 (SK-OV-3; Homo sapiens, SK-OV-3, 24 h, read-out: IC50) | IC50 (HeLa; hela) | IC50 (MDA-MB-231; mda-mb-231)
CC1(C)S[C@@H]2[C@H](NC(=O)Cc3ccccc3)C(=O)N2[C@H]1C(=O)O [PENICILLIN G] | 3.12 µg/mL (≈ 9.35 µM) | 1.56 µg/mL (≈ 4.67 µM) | 12.5 µg/mL (≈ 37.4 µM) | 1.56 µg/mL (≈ 4.67 µM) | 6.25 µg/mL (≈ 18.7 µM) | 12.5 µg/mL (≈ 37.4 µM) | – | – | – | – | – | – | – | – | – | –
CN[C@@H]1[C@H](O[C@H]2[C@H](O[C@H]3[C@H](O)[C@@H](O)[C@H](N=C(N)N)[C@@H](O)[C@@H]3N=C(N)N)O[C@@H](C)[C@]2(O)C=O)O[C@@H](CO)[C@H](O)[C@H]1O [STREPTOMYCIN] | 3.12 µg/mL (≈ 5.37 µM) | 6.25 µg/mL (≈ 10.7 µM) | 6.25 µg/mL (≈ 10.7 µM) | 6.25 µg/mL (≈ 10.7 µM) | 3.12 µg/mL (≈ 5.37 µM) | 1.56 µg/mL (≈ 2.69 µM) | – | – | – | – | – | – | – | – | – | –
COc1cccc2c1C(=O)c1c(O)c3c(c(O)c1C2=O)C[C@@](O)(C(=O)CO)C[C@@H]3O[C@H]1C[C@H](N)[C@H](O)[C@H](C)O1 [DOXORUBICIN] | – | – | – | – | – | – | – | – | 0.7 µM | Not Active | 0.7 to 0.8 µM | 0.7 to 0.8 µM | – | 0.7 to 0.8 µM | – | –
CO[C@@]12[C@H](COC(N)=O)C3=C(C(=O)C(C)=C(N)C3=O)N1C[C@@H]1N[C@@H]12 [MITOMYCIN] | – | – | – | – | – | – | Not Active | Not Active | – | – | – | – | 13.2 to 13.4 µM | – | Not Active | Not Active

Continued, in another order:

MIC [1] | MIC (Staphylococcus aureus) | MIC (Escherichia coli) | MIC (Bacillus subtilis) | MIC (Klebsiella pneumoniae) | MIC (Pseudomonas aeruginosa) | Compound | IC50 (DU-145; du-145) | IC50 (SK-OV-3; sk-ov-3) | IC50 (HeLa; [2]) | IC50 (CHO-K1; cho-k1) | IC50 (MDA-MB-231; [3]) | IC50 (DU-145; [4]) | IC50 (CHO-K1; [5]) | IC50 (SK-OV-3; Homo sapiens, SK-OV-3, 24 h, read-out: IC50) | IC50 (HeLa; hela) | IC50 (MDA-MB-231; mda-mb-231)
> 150 µg/mL | > 150 µg/mL | > 150 µg/mL | > 150 µg/mL | > 150 µg/mL | > 150 µg/mL | CCCCCCCCCC(=O)Nc1nnc(S[C@@H]2O[C@H](CO)[C@H](O)[C@H](O)[C@H]2O)s1 | Not Active | Not Active | 25.9 µM | Not Active | 53.1 µM | – | – | – | – | –
inactive | inactive | inactive | inactive | inactive | inactive | CCCCCCCCCCCCCC(=O)Nc1nnc(S[C@@H]2O[C@H](COC(C)=O)[C@H](OC(C)=O)[C@H](OC(C)=O)[C@H]2OC(C)=O)s1 | – | Not Active | 61.3 µM | – | 26.2 µM | 34.7 µM | 16.3 µM | – | – | –
inactive | inactive | inactive | inactive | inactive | inactive | C=CCCCCCCCCC(=O)Nc1nnc(S[C@@H]2O[C@H](COC(C)=O)[C@H](OC(C)=O)[C@H](OC(C)=O)[C@H]2OC(C)=O)s1 | – | Not Active | 77.7 µM | – | 60.9 µM | 22.9 µM | 16.3 µM | – | – | –
> 150 µg/mL | > 150 µg/mL | > 150 µg/mL | > 150 µg/mL | > 150 µg/mL | > 150 µg/mL | CCCCCCCCCCCCCCCC(=O)Nc1nnc(S[C@@H]2O[C@H](CO)[C@H](O)[C@H](O)[C@H]2O)s1 | Not Active | Not Active | 14.2 µM | Not Active | 62.3 µM | – | – | – | – | –
> 150 µg/mL | > 150 µg/mL | > 150 µg/mL | 25 µg/mL (≈ 52.3 µM) | 12.5 µg/mL (≈ 26.2 µM) | > 150 µg/mL | CCCCCCCCCCCC(=O)Nc1nnc(S[C@@H]2O[C@H](CO)[C@H](O)[C@H](O)[C@H]2O)s1 | Not Active | Not Active | 8.7 µM | Not Active | 32 µM | – | – | – | – | –
inactive | inactive | inactive | inactive | inactive | inactive | CCCCCCCCCCCC(=O)Nc1nnc(S[C@@H]2O[C@H](COC(C)=O)[C@H](OC(C)=O)[C@H](OC(C)=O)[C@H]2OC(C)=O)s1 | – | Not Active | 51.9 µM | – | 26.7 µM | 16.9 µM | 27.7 µM | – | – | –
